Measured values published in PubChem BioAssay (NCI).
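Method: 48-hour compound exposure of cells in 96-well plates, five concentrations, linear interpolation of endpoints. GI50 marks 50% less growth. TGI: concentration producing complete growth inhibition.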

Legend:
Assay in all cases: inhibition of tumour cell growth, NCI panel, 48 h
[1] = tested on: NCI-H460 lung
[2] = tested on: OVCAR-3 ovarian
[3] = tested on: SK-OV-3 ovarian
[4] = tested on: HCT-116 colon
[5] = tested on: UO-31 renal
[6] = tested on: HOP-92 NSCLC
[7] = tested on: IGROV1 ovarian
[8] = tested on: NCI/ADR-RES ovarian
[9] = tested on: SK-MEL-28 melanoma
[10] = tested on: TK-10 renal
[11] = tested on: SF-295 CNS
[12] = tested on: SF-268 CNS
[13] = tested on: LOX IMVI melanoma
[14] = tested on: UACC-257 melanoma
[15] = tested on: OVCAR-8 ovarian
[16] = tested on: DU-145 prostate
[17] = tested on: HCT-15 colon
[18] = tested on: SK-MEL-5 melanoma
[19] = tested on: UACC-62 melanoma
[20] = tested on: NCI-H226 lung
[21] = tested on: 786-0 renal
[22] = tested on: M14 melanoma
[23] = tested on: HOP-62 NSCLC
[24] = tested on: A498 renal
[25] = tested on: HT29 colon
[26] = tested on: MDA-MB-231 breast
[27] = tested on: SNB-19 CNS
[28] = tested on: ACHN renal
[29] = tested on: U251 CNS
[30] = tested on: A549 NSCLC
[31] = tested on: CAKI-1 renal
[32] = tested on: OVCAR-5 ovarian
[33] = tested on: SN12C renal
[34] = tested on: SF-539 CNS
[35] = tested on: EKVX NSCLC
[36] = tested on: COLO 205 colon
[37] = tested on: HS 578T breast
[38] = tested on: KM12 colon
[39] = tested on: BT-549 breast
[40] = tested on: SNB-75 CNS
[41] = tested on: T-47D breast
[42] = tested on: CCRF-CEM leukemia
[43] = tested on: SR leukemia
[44] = tested on: SK-MEL-2 melanoma
[45] = tested on: MALME-3M melanoma
[46] = tested on: HCC-2998 colon
[47] = tested on: SW-620 colon
[48] = tested on: RPMI-8226 leukemia
[49] = tested on: NCI-H23 lung
[50] = tested on: HL-60(TB) leukemia
[51] = tested on: OVCAR-4 ovarian
[52] = tested on: MOLT-4 leukemia
[53] = tested on: RXF 393 renal
[54] = tested on: PC-3 prostate
[55] = tested on: MCF7 breast
[56] = tested on: MDA-MB-468 breast
[57] = tested on: MDA-MB-435
[58] = tested on: K-562 leukemia
[59] = tested on: NCI-H522 lung

**Q.** For `CC[C@@]12CC(C(=O)OC)=C3Nc4cc5c(cc4[C@@]34CCN(C[C@H]3O[C@H]31)[C@@H]24)[C@@H]1[C@H](O5)[C@@H](O)[C@@]2(CC)CC(C(=O)OC)=C3Nc4cc(O)ccc4[C@@]34CCN1[C@@H]24`, which GI50 [1] is on record?
**A.** 441 nM

**Q.** And the TGI [1]?
**A.** 7570 nM

**Q.** And the GI50 [2]?
**A.** 221 nM

**Q.** What about the TGI [2] of the same compound?
**A.** 3580 nM

**Q.** And the GI50 [3]?
**A.** 149 nM

**Q.** What about the TGI [3] of the same compound?
**A.** 6220 nM

**Q.** And the GI50 [4]?
**A.** 199 nM

**Q.** What about the TGI [4] of the same compound?
**A.** 1760 nM

**Q.** What about the GI50 [5] of the same compound?
**A.** 132 nM

**Q.** And the TGI [5]?
**A.** 6080 nM

**Q.** And the GI50 [6]?
**A.** 127 nM

**Q.** And the TGI [6]?
**A.** 11000 nM

**Q.** And the GI50 [7]?
**A.** 254 nM

**Q.** What about the TGI [7] of the same compound?
**A.** 2930 nM

**Q.** And the GI50 [8]?
**A.** 1110 nM

**Q.** What about the TGI [8] of the same compound?
**A.** 3850 nM

**Q.** And the GI50 [9]?
**A.** 622 nM

**Q.** What about the TGI [9] of the same compound?
**A.** 15800 nM

**Q.** And the GI50 [10]?
**A.** 128 nM

**Q.** And the TGI [10]?
**A.** 3310 nM

**Q.** And the GI50 [11]?
**A.** 330 nM

**Q.** And the TGI [11]?
**A.** 12700 nM

**Q.** And the GI50 [12]?
**A.** 1300 nM

**Q.** And the TGI [12]?
**A.** 13400 nM

**Q.** And the GI50 [13]?
**A.** 111 nM

**Q.** What about the TGI [13] of the same compound?
**A.** 542 nM

**Q.** What about the GI50 [14] of the same compound?
**A.** 199 nM

**Q.** What about the TGI [14] of the same compound?
**A.** 6890 nM

**Q.** And the GI50 [15]?
**A.** 424 nM

**Q.** And the TGI [15]?
**A.** 15700 nM

**Q.** What about the GI50 [16] of the same compound?
**A.** 1720 nM

**Q.** And the TGI [16]?
**A.** 11500 nM

**Q.** What about the GI50 [17] of the same compound?
**A.** 173 nM

**Q.** And the TGI [17]?
**A.** 1800 nM

**Q.** And the GI50 [18]?
**A.** 154 nM

**Q.** What about the TGI [18] of the same compound?
**A.** 958 nM

**Q.** And the GI50 [19]?
**A.** 49.1 nM

**Q.** What about the TGI [19] of the same compound?
**A.** 1170 nM

**Q.** What about the GI50 [20] of the same compound?
**A.** 157 nM

**Q.** What about the TGI [20] of the same compound?
**A.** 7000 nM

**Q.** And the GI50 [21]?
**A.** 188 nM

**Q.** What about the TGI [21] of the same compound?
**A.** 10000 nM

**Q.** And the GI50 [22]?
**A.** 239 nM

**Q.** What about the TGI [22] of the same compound?
**A.** 19200 nM

**Q.** What about the GI50 [23] of the same compound?
**A.** 156 nM

**Q.** What about the TGI [23] of the same compound?
**A.** 7580 nM

**Q.** What about the GI50 [24] of the same compound?
**A.** 269 nM

**Q.** And the TGI [24]?
**A.** 2560 nM

**Q.** And the GI50 [25]?
**A.** 142 nM

**Q.** What about the TGI [25] of the same compound?
**A.** 7450 nM

**Q.** What about the GI50 [26] of the same compound?
**A.** 117 nM

**Q.** What about the TGI [26] of the same compound?
**A.** 1900 nM

**Q.** And the GI50 [27]?
**A.** 277 nM

**Q.** And the TGI [27]?
**A.** 9060 nM

**Q.** What about the GI50 [28] of the same compound?
**A.** 363 nM

**Q.** And the TGI [28]?
**A.** 12800 nM

**Q.** And the GI50 [29]?
**A.** 317 nM

**Q.** What about the TGI [29] of the same compound?
**A.** 4770 nM

**Q.** And the GI50 [30]?
**A.** 381 nM

**Q.** And the TGI [30]?
**A.** 11100 nM

**Q.** What about the GI50 [31] of the same compound?
**A.** 61.9 nM

**Q.** What about the TGI [31] of the same compound?
**A.** 6290 nM

**Q.** What about the GI50 [32] of the same compound?
**A.** 1330 nM

**Q.** And the TGI [32]?
**A.** 15000 nM

**Q.** What about the GI50 [33] of the same compound?
**A.** 439 nM

**Q.** What about the TGI [33] of the same compound?
**A.** 10900 nM

**Q.** And the GI50 [34]?
**A.** 322 nM

**Q.** What about the TGI [34] of the same compound?
**A.** 11600 nM

**Q.** What about the GI50 [35] of the same compound?
**A.** 439 nM

**Q.** And the TGI [35]?
**A.** 16700 nM

**Q.** What about the GI50 [36] of the same compound?
**A.** 158 nM

**Q.** And the TGI [36]?
**A.** 2280 nM

**Q.** And the GI50 [37]?
**A.** 105 nM

**Q.** And the TGI [37]?
**A.** 2860 nM

**Q.** And the GI50 [38]?
**A.** 273 nM

**Q.** And the TGI [38]?
**A.** 4520 nM

**Q.** And the GI50 [39]?
**A.** 370 nM

**Q.** And the TGI [39]?
**A.** 4050 nM

**Q.** What about the GI50 [40] of the same compound?
**A.** 21.8 nM

**Q.** What about the TGI [40] of the same compound?
**A.** 1190 nM

**Q.** And the GI50 [41]?
**A.** 143 nM

**Q.** What about the TGI [41] of the same compound?
**A.** 10400 nM

**Q.** What about the GI50 [42] of the same compound?
**A.** 4380 nM

**Q.** What about the TGI [42] of the same compound?
**A.** 56000 nM

**Q.** What about the GI50 [43] of the same compound?
**A.** 79.3 nM

**Q.** What about the TGI [43] of the same compound?
**A.** 7690 nM

**Q.** And the GI50 [44]?
**A.** 876 nM

**Q.** And the TGI [44]?
**A.** 5270 nM

**Q.** And the GI50 [45]?
**A.** 201 nM

**Q.** And the TGI [45]?
**A.** 2640 nM

**Q.** And the GI50 [46]?
**A.** 145 nM

**Q.** And the TGI [46]?
**A.** 735 nM

**Q.** And the GI50 [47]?
**A.** 530 nM

**Q.** And the TGI [47]?
**A.** 5250 nM

**Q.** What about the GI50 [48] of the same compound?
**A.** 109 nM

**Q.** What about the TGI [48] of the same compound?
**A.** 13700 nM

**Q.** And the GI50 [49]?
**A.** 278 nM

**Q.** And the TGI [49]?
**A.** 2370 nM

**Q.** What about the GI50 [50] of the same compound?
**A.** 35.1 nM

**Q.** What about the TGI [50] of the same compound?
**A.** 295 nM

**Q.** What about the GI50 [51] of the same compound?
**A.** 232 nM

**Q.** What about the TGI [51] of the same compound?
**A.** 14700 nM

**Q.** And the GI50 [52]?
**A.** 768 nM

**Q.** What about the TGI [52] of the same compound?
**A.** 5320 nM

**Q.** What about the GI50 [53] of the same compound?
**A.** 763 nM

**Q.** What about the TGI [53] of the same compound?
**A.** 3890 nM

**Q.** What about the GI50 [54] of the same compound?
**A.** 380 nM

**Q.** And the TGI [54]?
**A.** 18800 nM

**Q.** And the GI50 [55]?
**A.** 45.2 nM

**Q.** What about the TGI [55] of the same compound?
**A.** 6010 nM

**Q.** And the GI50 [56]?
**A.** 55.3 nM

**Q.** And the TGI [56]?
**A.** 320 nM

**Q.** And the GI50 [57]?
**A.** 191 nM

**Q.** What about the TGI [57] of the same compound?
**A.** 8940 nM

**Q.** What about the GI50 [58] of the same compound?
**A.** 134 nM

**Q.** And the TGI [58]?
**A.** 7900 nM

**Q.** And the GI50 [59]?
**A.** 51.5 nM

**Q.** And the TGI [59]?
**A.** 752 nM
